Reference: patent publication US9169270B2, “1-phenyl-substituted heterocyclyl derivatives and their use as prostaglandin D2 receptor modulators” (Actelion Pharmaceuticals Ltd., priority 2012, dated 2015)

target: hCRTH2 receptor (Homo sapiens (Human), UniProt Q9Y5Y4); assay: hCRTH2 receptor membranes radioligand (3H-PGD2) displacement assay; details: hCRTH2 membrane fragments, Binding-Buffer with 0.1% BSA
Procedure: Biological Assays: Preparation of hCRTH2 Receptor Membranes and Radioligand Displacement Assay:
First, recombinant HEK293-hCRTH2 cells were detached from culture plates into 5 ml buffer A/plate (Buffer A: 5 mM Tris, 1 mM MgCl2-6H2O pH=7.4) using a rubber policeman. Cells were then transferred into centrifugation tubes and centrifuged for 5 min at 400 g. The cell pellet was resuspended in the same buffer and tubes were frozen at −80° C. Cells were thawed and membrane fragments were generated by homogenization using a polytron homogenizer (30 seconds). The membrane fragments were then centrifuged at 3000 g for 20 minutes and resuspended in buffer C (Buffer C: 75 mM Tris, 25 mM MgCl2, 250 mM Saccharose pH 7.4). Aliquots of membrane fragments were stored at −20° C.
Binding assay was performed in a final assay volume of 250 μl. First, 25 μl of test compound, previously diluted in Binding-Buffer (Binding-Buffer: 50 mM Tris-Base, 100 mM NaCl, 1 mM EDTA, 0.1% BSA (protease free), 0.01% NaN3, 10 mM MnCl2, pH 7.0) was placed into each well. […] Binding assay was started by addition of 100 μl CRTH2 membrane fragments, reaching a final concentration of 20 μg/well. For non-specific binding, PGD2 was added to the reaction mixture to […] final concentration. This assay mix was incubated for 90 minutes at room temperature and then filtered through a GF/C filter 96-well plate which was pre-soaked for 3 hours in 0.5% polyethyleneimine (PEI). The filter-wells were washed three times with ice cold Binding-Buffer. Then, 40 μl of Microscint-40 (Packard) was added to each well and the retained radioactivity quantified in a Topcount (Packard).

hCRTH2 receptor, sequence (Q9Y5Y4 whole entry, the tested form may be a part): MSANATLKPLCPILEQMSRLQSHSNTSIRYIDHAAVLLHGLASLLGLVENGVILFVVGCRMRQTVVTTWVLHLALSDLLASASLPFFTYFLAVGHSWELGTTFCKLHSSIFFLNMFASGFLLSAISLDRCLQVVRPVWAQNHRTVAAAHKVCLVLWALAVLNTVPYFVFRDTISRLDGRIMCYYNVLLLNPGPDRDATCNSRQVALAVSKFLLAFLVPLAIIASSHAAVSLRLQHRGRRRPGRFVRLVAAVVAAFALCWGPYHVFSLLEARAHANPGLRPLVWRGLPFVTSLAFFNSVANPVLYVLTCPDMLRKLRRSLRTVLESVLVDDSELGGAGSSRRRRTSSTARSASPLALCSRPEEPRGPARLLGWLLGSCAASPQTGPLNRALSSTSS

| IC50 [nM] | Compound |
| --- | --- |
| 2.2 | O=C(O)COc1ccc(Cl)cc1C1c2scnc2CCN1C(=O)OCc1cc(F)ccc1Cl (racemic) [Example 92, (±)-4-(2-Carboxymethoxy-5-chloro-phenyl)-6,7-dihydro-4H-thiazolo[5,4-c]pyridine-5-carboxylic acid 2-chloro-5-fluoro-benzyl ester] |
| 1.3 | O=C(O)COc1ccc(Cl)cc1C1c2scnc2CCN1C(=O)OCc1cc(F)ccc1F (racemic) [Example 93, (±)-4-(2-Carboxymethoxy-5-chloro-phenyl)-6,7-dihydro-4H-thiazolo[5,4-c]pyridine-5-carboxylic acid 2,5-difluoro-benzyl ester] |
| 17.1 | O=C(O)COc1ccc(Cl)cc1C1c2scnc2CCN1C(=O)OCc1ccc(Cl)cc1Cl (racemic) [Example 94, (±)-4-(2-Carboxymethoxy-5-chloro-phenyl)-6,7-dihydro-4H-thiazolo[5,4-c]pyridine-5-carboxylic acid 2,4-dichloro-benzyl ester] |
| 5.1 | O=C(O)COc1ccc(Cl)cc1C1c2scnc2CCN1C(=O)OCc1nc2ccccc2o1 (racemic) [Example 97, (±)-4-(2-Carboxymethoxy-5-chloro-phenyl)-6,7-dihydro-4H-thiazolo[5,4-c]pyridine-5-carboxylic acid benzooxazol-2-ylmethyl ester] |
| 17.8 | CC(C)COC(=O)N1CCc2ncsc2C1c1cc(Cl)ccc1OCC(=O)O (racemic) [Example 98, (±)-4-(2-Carboxymethoxy-5-chloro-phenyl)-6,7-dihydro-4H-thiazolo[5,4-c]pyridine-5-carboxylic acid isobutyl ester] |
| 11.8 | CCCCOC(=O)N1CCc2ncsc2C1c1cc(Cl)ccc1OCC(=O)O (racemic) [Example 99, (±)-4-(2-Carboxymethoxy-5-chloro-phenyl)-6,7-dihydro-4H-thiazolo[5,4-c]pyridine-5-carboxylic acid butyl ester] |
| 7.1 | Cc1ccc(COC(=O)N2CCc3ncsc3C2c2cc(Cl)ccc2OCC(=O)O)c(C)c1 (racemic) [Example 100, (±)-4-(2-Carboxymethoxy-5-chloro-phenyl)-6,7-dihydro-4H-thiazolo[5,4-c]pyridine-5-carboxylic acid 2,4-dimethyl-benzyl ester] |
| 6.1 | Cc1cccc(COC(=O)N2CCc3ncsc3C2c2cc(Cl)ccc2OCC(=O)O)c1C (racemic) [Example 101, (±)-4-(2-Carboxymethoxy-5-chloro-phenyl)-6,7-dihydro-4H-thiazolo[5,4-c]pyridine-5-carboxylic acid 2,3-dimethyl-benzyl ester] |
| 3.4 | N#Cc1ccc(OCC(=O)O)c(C2c3scnc3CCN2C(=O)OCc2ccccc2)c1 (racemic) [Example 106, (±)-4-(2-Carboxymethoxy-5-cyano-phenyl)-6,7-dihydro-4H-thiazolo[5,4-c]pyridine-5-carboxylic acid benzyl ester] |
| 5.7 | O=C(O)COc1ccc(Cl)cc1C1c2scnc2CCN1C(=O)NCCc1ccccc1 (racemic) [Example 107, (±)-[4-Chloro-2-(5-phenethylcarbamoyl-4,5,6,7-tetrahydro-thiazolo[5,4-c]pyridin-4-yl)-phenoxy]-acetic acid] |
| 8.9 | O=C(O)COc1ccc(Cl)cc1C1c2scnc2CCN1C(=O)NCc1ccccc1Cl (racemic) [Example 108, (±)-{4-Chloro-2-[5-(2-chloro-benzylcarbamoyl)-4,5,6,7-tetrahydro-thiazolo[5,4-c]pyridin-4-yl]-phenoxy}-acetic acid] |
| 86.4 | CCCc1nc2c(s1)C(c1cc(Cl)ccc1OCC(=O)O)N(C(=O)OCc1ccccc1)CC2 (racemic) [Example 111, (±)-4-(2-Carboxymethoxy-5-chloro-phenyl)-2-propyl-6,7-dihydro-4H-thiazolo[5,4-c]pyridine-5-carboxylic acid benzyl ester] |
| 30.9 | O=C(O)COc1ccc(Cl)cc1C1c2sc(-c3ccccc3)nc2CCN1C(=O)OCc1ccccc1 (racemic) [Example 112, (±)-4-(2-Carboxymethoxy-5-chloro-phenyl)-2-phenyl-6,7-dihydro-4H-thiazolo[5,4-c]pyridine-5-carboxylic acid benzyl ester] |
| 254 | CS(=O)(=O)Nc1nc2c(s1)C(c1cc(Cl)ccc1OCC(=O)O)N(C(=O)OCc1ccccc1)CC2 (racemic) [Example 113, (±)-4-(2-Carboxymethoxy-5-chloro-phenyl)-2-methanesulfonylamino-6,7-dihydro-4H-thiazolo[5,4-c]pyridine-5-carboxylic acid benzyl ester] |
| 678 | O=C(O)COc1ccc(Cl)cc1C1c2sc(NS(=O)(=O)C3CC3)nc2CCN1C(=O)OCc1ccccc1 (racemic) [Example 114, (±)-4-(2-Carboxymethoxy-5-chloro-phenyl)-2-cyclopropanesulfonylamino-6,7-dihydro-4H-thiazolo[5,4-c]pyridine-5-carboxylic acid benzyl ester] |
| 491 | O=C(O)COc1ccc(Cl)cc1C1c2sc(NC(=O)C3CC3)nc2CCN1C(=O)OCc1ccccc1 (racemic) [Example 115, (±)-4-(2-Carboxymethoxy-5-chloro-phenyl)-2-(cyclopropanecarbonyl-amino)-6,7-dihydro-4H-thiazolo[5,4-c]pyridine-5-carboxylic acid benzyl ester] |
| 857 | CC(=O)Nc1nc2c(s1)C(c1cc(Cl)ccc1OCC(=O)O)N(C(=O)OCc1ccccc1)CC2 (racemic) [Example 116, (±)-2-Acetylamino-4-(2-carboxymethoxy-5-chloro-phenyl)-6,7-dihydro-4H-thiazolo[5,4-c]pyridine-5-carboxylic acid benzyl ester] |
| 8.3 | O=C(O)COc1ccc(F)cc1C1c2scnc2CCN1C(=O)OCc1ccccc1 (racemic) [Example 118, (±)-4-(2-Carboxymethoxy-5-fluoro-phenyl)-6,7-dihydro-4H-thiazolo[5,4-c]pyridine-5-carboxylic acid benzyl ester] |
| 18.5 | C[C@@H](Oc1ccc(Cl)cc1C1c2scnc2CCN1C(=O)OCc1ccccc1)C(=O)O (mixture of isomers) [Example 119, (±)-4-[2-((R)-1-Carboxy-ethoxy)-5-chloro-phenyl]-6,7-dihydro-4H-thiazolo[5,4-c]pyridine-5-carboxylic acid benzyl ester] |
| 64.4 | C[C@H](Oc1ccc(Cl)cc1C1c2scnc2CCN1C(=O)OCc1ccccc1)C(=O)O (mixture of isomers) [Example 120, (±)-4-[2-((S)-1-Carboxy-ethoxy)-5-chloro-phenyl]-6,7-dihydro-4H-thiazolo[5,4-c]pyridine-5-carboxylic acid benzyl ester] |
| 2.8 | O=C(O)COc1ccc(Cl)cc1[C@@H]1c2scnc2CCN1C(=O)[C@@H]1C[C@H]1c1cccc(F)c1 [Example 7, (4-Chloro-2-{(R)-5-[(1R,2R)-2-(3-fluoro-phenyl)-cyclopropanecarbonyl]-4,5,6,7-tetrahydro-thiazolo[5,4-c]pyridin-4-yl}-phenoxy)-acetic acid] |
| 5 | O=C(O)COc1ccc(Cl)cc1[C@@H]1c2scnc2CCN1C(=O)[C@@H]1C[C@H]1c1ccc(F)cc1 [Example 8, (4-Chloro-2-{(R)-5-[(1R,2R)-2-(4-fluoro-phenyl)-cyclopropanecarbonyl]-4,5,6,7-tetrahydro-thiazolo[5,4-c]pyridin-4-yl}-phenoxy)-acetic acid] |
| 462 | O=C(O)COc1ccc(Cl)cc1[C@@H]1c2scnc2CCN1C(=O)[C@H]1C[C@@H]1c1ccc(F)cc1 [Example 9, (4-Chloro-2-{(R)-5-[(1S,2S)-2-(4-fluoro-phenyl)-cyclopropanecarbonyl]-4,5,6,7-tetrahydro-thiazolo[5,4-c]pyridin-4-yl}-phenoxy)-acetic acid] |
| 1.5 | Cc1nc2c(s1)[C@@H](c1cc(Cl)ccc1OCC(=O)O)N(C(=O)[C@@H]1C[C@H]1c1ccccc1)CC2 [Example 10, {4-Chloro-2-[(R)-2-methyl-5-((1R,2R)-2-phenyl-cyclopropanecarbonyl)-4,5,6,7-tetrahydro-thiazolo[5,4-c]pyridin-4-yl]-phenoxy}-acetic acid] |
| 570 | Cc1nc2c(s1)[C@H](c1cc(Cl)ccc1OCC(=O)O)N(C(=O)[C@@H]1C[C@H]1c1ccccc1)CC2 [Example 11, {4-Chloro-2-[(S)-2-methyl-5-((1R,2R)-2-phenyl-cyclopropanecarbonyl)-4,5,6,7-tetrahydro-thiazolo[5,4-c]pyridin-4-yl]-phenoxy}-acetic acid] |
| 655 | Cc1nc2c(s1)[C@H](c1cc(Cl)ccc1OCC(=O)O)N(C(=O)OCc1ccccc1)CC2 [Example 18, (S)-4-(2-Carboxymethoxy-5-chloro-phenyl)-2-methyl-6,7-dihydro-4H-thiazolo[5,4-c]pyridine-5-carboxylic acid benzyl ester] |
| 4.71 | Cc1nc2c(s1)[C@@H](c1cc(Cl)ccc1OCC(=O)O)N(C(=O)OCc1ccccc1)CC2 [Example 19, (R)-4-(2-Carboxymethoxy-5-chloro-phenyl)-2-methyl-6,7-dihydro-4H-thiazolo[5,4-c]pyridine-5-carboxylic acid benzyl ester] |
